Data from patent US20250019385A1, “SPIROCYCLIC ANNULATED 2-AMINO-3-CYANO THIOPHENES AND DERIVATIVES FOR THE TREATMENT OF CANCER” (Boehringer Ingelheim International GmbH, priority 2023, published 2025).
pIC50: −log10 of the molar value. Values after ≈ are worked out from the molar mass of the structure shown. Where two headings read alike, the source gives them in different places.

Legend:
[1] = Plasma protein binding assay (PPB), equilibrium dialysis; type: in vitro ADME; details: bovine, 10% FCS in PBS, read-out: PPB 10% FCS (% fu)
Description: Binding of test compounds to plasma was determined using equilibrium dialysis (ED) and quantitative mass spectrometry interfaced with liquid chromatography (LC-MS). In brief, ED was performed with dialysis devices consisting of two chambers separated by a semipermeable membrane with a molecular weight cut-off of 5-10 kg/mol. One chamber was filled with 10% FCS in PBS containing 1-10 μmol/L test compound and the other chamber was filled with phosphate-buffer saline (PBS) with or without dextran. The dialysis chamber was incubated for 3-5 hours at 37° C. After incubation, protein was precipitated from aliquots of each chamber and the concentration of test compound in the supernatant of the plasma-containing compartment (cserum) and of the buffer-containing compartment (cbuffer) was determined by LC-MS. The fraction of unbound test compound (not bound to plasma) (f) was calculated according to the following equation: […]

[2] = Solubility measurement (DMSO solution precipitation method); type: physicochemical; details: aqueous buffer, kinetic from dmso stock
Description: A 10 mM DMSO stock solution of a test compound is used to determine its aq. solubility. The DMSO solution is diluted with an aq. medium (McIlvaine buffer with pH=4.5 or 6.8) to a final concentration of 250 μM. After 24 h of shaking at ambient temperature a potentially formed precipitate is removed by filtration. The concentration of the test compound in the filtrate is determined by LC-UV methods by calibrating the signal to the signal of a reference solution with complete dissolution of the test compound in acetonitrile/water (1:1) with known concentration.

[3] = system: MKN1 cells; experiment: MKN1 CTG proliferation assay (120 h) (gastric cancer, wt amplified); type: cell-based; details: Homo sapiens, MKN-1
Description: MKN1 cells (JCRB0252) are dispensed into black 384-well plates, flat and clear bottom (Greiner, PNr. 781091) at a density of 200 cells per well in 60 μl RPMI-1640 ATCC-Formulation (Gibco #A10491)+10% FCS (fetal calf serum, HyClone, SH30084.03). Cells are incubated overnight at 37° C. in a humidified tissue culture incubator at 5% CO2. Compounds (10 mM stock in DMSO) are added at logarithmic dose series using the ECHO acoustic liquid handler system (Beckman Coulter), normalizing for added DMSO and including DMSO controls. All compound treatments are performed in technical duplicates. For the TO time point measurement, untreated cells are analyzed at the time of compound addition. Plates are incubated for 120 h, and cell viability is measured using CellTiter-Glo luminescent cell viability reagent (Promega product code G7570). Viability (stated as percent of control) is defined as relative luminescence units RLU of each well divided by the RLU of cells in DMSO controls. IC50 values are determined from viability measurements by non-linear regression using a four-parameter model.
IC50 values of representative compounds according to the invention measured with these assays in the indicated cell lines are presented in Table 46.

[4] = target: KRAS (G12C)::SOS1 protein-protein interaction (Homo sapiens (Human), UniProt P01116, C118S/C51S/C80L/G12C); experiment: KRAS::SOS1 AlphaScreen binding assay (KRAS G12C); details: GDP
Excerpt: This assay can be used to examine the potency with which compounds according to the invention binding to (mutated) KRAS inhibit the protein-protein interaction between SOS1 and (mutated) KRAS e.g. KRAS G12C, KRAS G12D. […] Low IC50 values in this assay setting are indicative of strong inhibition of protein-protein interaction between SOS1 and KRAS:
These assays measure the inhibitory effect of compounds on KRAS mutant protein-protein interactions using the Alpha Screen technology by Perkin Elmer.
The following (mutant) enzyme forms of KRAS and interacting proteins are used in these assays at the given concentrations:
KRAS (G12C) 1-169, N-terminal 6His-tag for purification, cleaved off, C-terminal avi-tag, biotinylated, mutations: C51S, C80L, C118S (in house); final assay concentration 7.5 nM and SOS1 564-1049, N-terminal 229 GST-tag, TEV cleavage site (Viva Biotech Ltd); final assay concentration 5 nM;
Test compounds dissolved in DMSO are dispensed onto assay plates (Proxiplate 384 PLUS, white, PerkinElmer; 6008289) using an Access Labcyte Workstation with the Labcyte Echo 55x. For the chosen highest assay concentration of 100 μM, 150 nL of compound solution are transferred from a 10 mM DMSO compound stock solution. A series of eleven fivefold dilutions per compound are transferred to the assay plate, compound dilutions are tested in duplicates. DMSO are added as backfill to a total volume of 150 nL.
The assays run on a fully automated robotic system in a darkened room below 100 Lux. To 150 nl of compound dilution 10 μl of a mix including KRAS mutant protein, SOS1 (final assay concentrations see above) and GDP nucleotide (Sigma G7127; final assay concentration 10 μM) in assay buffer (1×PBS, 0.1% BSA, 0.05% Tween 20) are added into columns 1-24.
After 30 minutes incubation time 5 μl of Alpha Screen bead mix in assay buffer are added into columns 1-23. Bead mix consists of AlphaLISA Glutathione Acceptor Beads (PerkinElmer, Cat No AL109) and AlphaScreen Streptavidin Donor Beads (PerkinElmer Cat No 6760002) in assay buffer at a final assay concentration of 10 μg/mL each.
Plates are kept at room temperature in a darkened incubator. After an additional 60 minutes incubation time the signal is measured in a PerkinElmer Envision HTS Multilabel Reader using the AlphaScreen specs from PerkinElmer.
Each plate contains up to 16 wells of a negative control depending on the dilution procedure (platewise or serial) (DMSO instead of test compound; with KRAS mutant::SOS1 GOP mix and bead mix; column 23) and 16 wells of a positive control (DMSO instead of test compound; with KRAS mutant::SOS1 GOP mix w/o bead mix; column 24).
As internal control known inhibitors of KRAS mutant::SOS1 interaction can be measured on each compound plate.
IC50 values are calculated and analyzed with Boehringer Ingelheim's MEGALAB C50 application using a 4 parametric logistic model.
Tables of example compounds disclosed herein contain IC50 values determined using the above assays (see Table 43).

[5] = McIlvaine buffer pH 4.5, 24 h, read-out: solubility pH 4.5
[6] = McIlvaine buffer pH 6.8, 24 h, read-out: solubility pH 6.8

Sequence of KRAS (G12C)::SOS1 protein-protein interaction (P01116 other isoform, or with tags, fused parts or gaps G12C/C51S/C80L/C118S): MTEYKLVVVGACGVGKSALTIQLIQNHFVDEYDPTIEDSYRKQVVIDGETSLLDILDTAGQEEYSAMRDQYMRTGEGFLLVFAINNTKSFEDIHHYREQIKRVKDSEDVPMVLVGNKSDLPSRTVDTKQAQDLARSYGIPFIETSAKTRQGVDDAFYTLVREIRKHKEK

Compound: C[C@H](Oc1nc(-c2onc3c2CCC[C@@]32CCCc3sc(N)c(C#N)c32)nc2c1n(C)c(=O)n2[C@@]12COC[C@@H]1C2)[C@@H]1CC[C@H](C)N1C [I-45]
- fraction unbound [1]: 0.2
- solubility at 24 h [2, 5]: > 135 µg/mL
- solubility at 24 h [2, 6]: 85 µg/mL (≈ 129 µM)
- pIC50 [3]: 7.96

Compound: CO[C@@H]1C[C@@H]([C@H](C)Oc2nc(-c3onc4c3CCC[C@@]43CCCc4sc(N)c(C#N)c43)nc3c2n(C)c(=O)n3[C@@]23COC[C@@H]2C3)N(C)C1 [I-46]
- fraction unbound [1]: 0.32
- solubility at 24 h [2, 5]: > 150 µg/mL
- solubility at 24 h [2, 6]: 67 µg/mL (≈ 99.6 µM)
- pIC50 [3]: 8.05

Compound: C[C@H](Oc1nc(-c2onc3c2CCC[C@@]32CCCc3sc(N)c(C#N)c32)nc2c1n(C)c(=O)n2[C@H]1CO[C@@H](C)C1)[C@@H]1CCCN1C [I-47]
- fraction unbound [1]: 0.13
- solubility at 24 h [2, 5]: > 132 µg/mL
- solubility at 24 h [2, 6]: 101 µg/mL (≈ 157 µM)

Compound: C[C@H](Oc1nc(-c2onc3c2CCC[C@@]32CCCc3sc(N)c(C#N)c32)nc2c1n(C)c(=O)n2[C@H]1CO[C@@H](C)C1)[C@@H]1CC[C@H](C)N1C [I-50]
- fraction unbound [1]: 0.09
- solubility at 24 h [2, 5]: 124 µg/mL (≈ 188 µM)
- solubility at 24 h [2, 6]: 103 µg/mL (≈ 156 µM)

Compound: CO[C@H]1CCN(C)[C@@H]1[C@H](C)Oc1nc(-c2onc3c2CCC[C@@]32CCCc3sc(N)c(C#N)c32)nc2c1n(C)c(=O)n2[C@H]1COC[C@@H](C)C1 [I-51]
- fraction unbound [1]: 0.07
- solubility at 24 h [2, 5]: > 153 µg/mL
- solubility at 24 h [2, 6]: < 1 µg/mL

Compound: CO[C@@H]1C[C@@H]([C@H](C)Oc2nc(-c3onc4c3CCC[C@@]43CCCc4sc(N)c(C#N)c43)nc3c2n(C)c(=O)n3[C@H]2COC[C@@H](C)C2)N(C)C1 [I-52]
- fraction unbound [1]: 0.06
- solubility at 24 h [2, 5]: > 153 µg/mL
- solubility at 24 h [2, 6]: < 1 µg/mL

Compound: C[C@H](Oc1nc(-c2onc3c2CCC[C@@]32CCCc3sc(N)c(C#N)c32)nc2c1CN(C1COC1)C[C@]21CCOC1)[C@@H]1CC[C@H](C)N1C [I-55]
- fraction unbound [1]: 0.2
- solubility at 24 h [2, 5]: > 159 µg/mL
- solubility at 24 h [2, 6]: > 137 µg/mL
- pIC50 [3]: 7.74

Compound: C[C@H](Oc1nc(-c2onc3c2CCC[C@@]32CCCc3sc(N)c(C#N)c32)nc2c1CN(C1COC1)C[C@]21CCOC1)[C@@H]1CCCN1C [I-56]
- fraction unbound [1]: 0.3
- solubility at 24 h [2, 5]: > 157 µg/mL
- solubility at 24 h [2, 6]: > 147 µg/mL
- pIC50 [3]: 7.82

Compound: CO[C@H]1CCN(C)[C@@H]1[C@H](C)Oc1nc(-c2onc3c2CCC[C@@]32CCCc3sc(N)c(C#N)c32)nc2c1CN(C1COC1)C[C@]21CCOC1 [I-57]
- fraction unbound [1]: 0.28
- solubility at 24 h [2, 5]: > 167 µg/mL
- solubility at 24 h [2, 6]: 72 µg/mL (≈ 105 µM)
- pIC50 [3]: 9.00

Compound: CO[C@@H]1C[C@@H]([C@H](C)Oc2nc(-c3onc4c3CCC[C@@]43CCCc4sc(N)c(C#N)c43)nc3c2CN(C2COC2)C[C@]32CCOC2)N(C)C1 [I-58]
- fraction unbound [1]: 0.24
- solubility at 24 h [2, 5]: > 167 µg/mL
- solubility at 24 h [2, 6]: 122 µg/mL (≈ 177 µM)
- pIC50 [3]: 7.68

Compound: C[C@H](Oc1nc(-c2noc3c2CCC[C@@]32CCCc3sc(N)c(C#N)c32)nc2c1n(C)c(=O)n2[C@H]1CO[C@@H](C)C1)[C@@H]1CCCN1C [II-5]
- solubility at 24 h [2, 5]: > 142 µg/mL
- solubility at 24 h [2, 6]: 107 µg/mL (≈ 166 µM)
- pIC50 [3]: 8.70

Compound: CO[C@@H]1C[C@@H]([C@H](C)Oc2nc(-c3noc4c3CCC[C@@]43CCCc4sc(N)c(C#N)c43)nc3c2n(C)c(=O)n3[C@@]23COC[C@@H]2C3)N(C)C1 [II-6]
- fraction unbound [1]: 0.07
- solubility at 24 h [2, 5]: > 144 µg/mL
- solubility at 24 h [2, 6]: 62 µg/mL (≈ 92.2 µM)
- pIC50 [3]: 7.92

Compound: C[C@H](Oc1nc(-c2noc3c2CCC[C@@]32CCCc3sc(N)c(C#N)c32)nc2c1CN(C1COC1)C[C@]21CCOC1)[C@@H]1CCCN1C [II-12]
- fraction unbound [1]: 0.19
- solubility at 24 h [2, 5]: > 152 µg/mL
- solubility at 24 h [2, 6]: > 140 µg/mL
- pIC50 [3]: 8.00

Compound: CO[C@H]1CCN(C)[C@@H]1[C@H](C)Oc1nc(-c2noc3c2CCC[C@@]32CCCc3sc(N)c(C#N)c32)nc2c1CN(C1COC1)C[C@]21CCOC1 [II-13]
- fraction unbound [1]: 0.09
- solubility at 24 h [2, 5]: > 151 µg/mL
- solubility at 24 h [2, 6]: 52 µg/mL (≈ 75.6 µM)
- pIC50 [3]: 8.30

Compound: CO[C@@H]1C[C@@H]([C@H](C)Oc2nc(-c3noc4c3CCC[C@@]43CCCc4sc(N)c(C#N)c43)nc3c2CN(C2COC2)C[C@]32CCOC2)N(C)C1 [II-14]
- fraction unbound [1]: 0.12
- solubility at 24 h [2, 5]: > 149 µg/mL
- solubility at 24 h [2, 6]: 114 µg/mL (≈ 166 µM)
- pIC50 [3]: 7.72

Compound: C[C@H](Oc1nc(-c2noc3c2CCC[C@@]32SCCc3sc(N)c(C#N)c32)nc2c1COC[C@]21CCOC1)[C@@H]1CCCN1C [II-16]
- pIC50 [3]: 8.40

Compound: C[C@H](Oc1nc(-c2noc3c2CCC[C@@]32CCCc3sc(N)c(C#N)c32)nc2c1CN(C1COC1)C[C@]21CCOC1)[C@@H]1CC[C@H](C)N1C [II-17]
- fraction unbound [1]: 0.1
- solubility at 24 h [2, 5]: > 138 µg/mL
- solubility at 24 h [2, 6]: 102 µg/mL (≈ 152 µM)
- pIC50 [3]: 7.70

Compound: C[C@H](Oc1nc(-c2noc3c2CCC[C@@]32CCCc3sc(N)c(C#N)c32)nc2c1CCC21CCOC1)[C@@H]1CCCN1C (stereo partly shown) [II-18]
- fraction unbound [1]: 0.01
- solubility at 24 h [2, 5]: 89 µg/mL (≈ 152 µM)
- solubility at 24 h [2, 6]: 37 µg/mL (≈ 63.1 µM)
- pIC50 [4]: 8.52
